Test results reported in publication PMC6917776, “Discovery of a chemical probe for PRDM9” (Nature Communications, 2019).
Values joined by “and” are separate entries in the source; they are usually repeats but may differ in a detail not shown here. Equal entries are not always repeated. Where two headings read alike, the source gives them in different places.

Tests used:
[1] = target: T1, PRDM7 (Homo sapiens, UniProt Q9NQW5); test: PRDM7 methyltransferase activity assay (3H-SAM scintillation proximity assay); format: biochemical
T1 sequence (Q9NQW5 1-492): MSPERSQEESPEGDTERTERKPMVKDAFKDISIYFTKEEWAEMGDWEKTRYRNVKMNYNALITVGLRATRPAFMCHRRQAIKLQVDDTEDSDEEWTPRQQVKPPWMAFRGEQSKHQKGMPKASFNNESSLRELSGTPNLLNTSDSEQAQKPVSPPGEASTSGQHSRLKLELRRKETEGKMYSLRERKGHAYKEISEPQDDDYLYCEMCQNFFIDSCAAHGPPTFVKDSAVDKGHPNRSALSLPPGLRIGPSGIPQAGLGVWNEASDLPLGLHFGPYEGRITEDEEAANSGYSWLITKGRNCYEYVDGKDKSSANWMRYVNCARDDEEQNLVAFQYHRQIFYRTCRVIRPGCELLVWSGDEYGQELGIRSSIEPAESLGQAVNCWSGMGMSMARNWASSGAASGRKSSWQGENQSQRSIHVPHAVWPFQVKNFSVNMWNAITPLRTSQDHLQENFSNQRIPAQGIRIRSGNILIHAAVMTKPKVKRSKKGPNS
Procedure: Methyltransferase activity assays for PRDM9 (amino acids: 195–415) were performed by monitoring the incorporation of tritium-labeled methyl group from ^3H-SAM to H3 (1–25) peptide using scintillation proximity assay (SPA). The enzymatic reactions were performed at 23 °C with 30 min incubation in 20 mM Tris-HCl (pH 7.5), 5 mM DTT, 0.01% Triton X-100 and 1% DMSO containing 71 μM of SAM (5 μM of ^3H-SAM), 4 μM of biotinylated H3 (1–25) peptide and 5 nM of PRDM9. For PRDM7, reactions were performed at 23 °C with 90 min incubation in 20 mM BTP pH 9.0, 5 mM DTT, 0.01% Triton X-100 and 1% DMSO containing 900 μM of SAM (5 μM of ^3H-SAM), 4 μM of biotinylated H3 (1–25) peptide and 100 nM of enzyme. Compounds were titrated from 3 nM to 50 μM and from 200 nM to 200 μM for PRDM9 and PRDM7, respectively. To stop the reactions, 10 μL of 7.5 M guanidine hydrochloride was added to 10 μL of reaction mixture, followed by 60 μL of buffer (20 mM Tris, pH 8.0), mixed, and transferred to a 384-well streptavidin coated Flash-plate. After mixing, the mixtures in Flash-plate were incubated for 2 h, and the CPM counts were measured using TopCount plate reader. All enzymatic reactions were performed in triplicate, and IC50 values were determined by fitting the data to Four Parameter Logistic equation using the GraphPad Prism software.

[2] = system: NanoLuc-tagged PRDM9 (residues 135–285); test: NanoLuciferase thermal shift assay (NALTSA) in HEK293T cells; format: cell-based, human; details: for Normalized_Signal: Fig. 5a, independent replicates
Procedure: Cells treated with 0.1% DMSO alone were used as a control.
Shown is the mean ± SEM of three biological replicates. Boxes indicate the mean values. P-values calculated using an unpaired Welch’s two-tailed t-test, *p-value = 0.017. Source data are provided as a Source Data file.
NALTSA assays were performed as previously described. Briefly, HEK293T cells were plated in 6-well plates at a density of 1.5 × 10^5 cells/mL. The following day, cells were transfected with 2 µg of C-terminally NanoLuc®-tagged PRDM9 (residues 135–285) with X-tremeGene HP DNA Transfection Reagent (Roche). Cells were incubated for 24 h, trypsinized and resuspended at 1.5 × 10^5 cells/mL in 1x PBS supplemented with protease inhibitors. Cell suspensions were incubated at 37 °C with 10 μM compound or 0.1% DMSO alone for 1 h. Sixty microliters of cells was dispensed per well of a 96-well PCR plate followed by heating across a temperature gradient for 3 min on a Mastercycler® thermal cycler (Eppendorf). After heating, samples were transferred to a 96-well white plastic plate (Corning) and Glo® Substrate (Promega) was added to each well at 1:1000 final dilution. NanoLuciferase signal was read at 450 nm (filter: 450 nm/BP 80 nm) on a CLARIOstar microplate reader (Mandel).

`COc1cc(OC)cc(-c2noc(N3CCN(C)C4(CCN(c5ccccc5)CC4)C3)n2)c1` [MRK-740-NC] was tested, and the “PRDM7 inhibition (in words)” value [1] was “no significant PRDM7 inhibition”, the “PRDM7-Activity %, single experiments” value ([1]; 0.195312 µM compound, 0.195312 µM) was 100.2% and 97.4% and the activity at 0.195312 µM ([1]; 0.195312 µM compound, read-out: PRDM7-Activity %, Average (n=3)) was 99.4%. The activity at 0.195312 µM ([1]; 0.195312 µM compound, read-out: PRDM7-Activity %, single experiments) was 101%, the “PRDM7-Activity %, single experiments” value ([1]; 0.390625 µM compound, 0.390625 µM) was 100.3% and 102.2% and the activity at 0.390625 µM ([1]; 0.390625 µM compound, read-out: PRDM7-Activity %, Average (n=3)) was 102%. For the same molecule, the activity at 0.390625 µM ([1]; 0.390625 µM compound, read-out: PRDM7-Activity %, single experiments) was 104%, the “PRDM7-Activity %, single experiments” value ([1]; 0.78125 µM compound, 0.78125 µM) was 94.78% and 94.12% and the activity at 0.78125 µM ([1]; 0.78125 µM compound, read-out: PRDM7-Activity %, Average (n=3)) was 92.2%. For the same molecule, the activity at 0.78125 µM ([1]; 0.78125 µM compound, read-out: PRDM7-Activity %, single experiments) was 87.6%, the “PRDM7-Activity %, single experiments” value ([1]; 1.5625 µM compound, 1.5625 µM) was 107.5% and 100.6% and the activity at 1.5625 µM ([1]; 1.5625 µM compound, read-out: PRDM7-Activity %, Average (n=3)) was 102%. The activity at 1.5625 µM ([1]; 1.5625 µM compound, read-out: PRDM7-Activity %, single experiments) was 98.2%, the “PRDM7-Activity %, single experiments” value ([1]; 3.125 µM compound, 3.125 µM) was 102.8% and 99.77% and the activity at 3.125 µM ([1]; 3.125 µM compound, read-out: PRDM7-Activity %, Average (n=3)) was 97.8%. The activity at 3.125 µM ([1]; 3.125 µM compound, read-out: PRDM7-Activity %, single experiments) was 90.9%, the “PRDM7-Activity %, single experiments” value ([1]; 6.25 µM compound, 6.25 µM) was 83.67% and 87.1% and the activity at 6.25 µM ([1]; 6.25 µM compound, read-out: PRDM7-Activity %, Average (n=3)) was 90.6%. For the same molecule, the activity at 6.25 µM ([1]; 6.25 µM compound, read-out: PRDM7-Activity %, single experiments) was 101%, the “PRDM7-Activity %, single experiments” value ([1]; 12.5 µM compound, 12.5 µM) was 102.7% and 91.72% and the activity at 12.5 µM ([1]; 12.5 µM compound, read-out: PRDM7-Activity %, Average (n=3)) was 94.2%. For the same molecule, the activity at 12.5 µM ([1]; 12.5 µM compound, read-out: PRDM7-Activity %, single experiments) was 88.2%, the “PRDM7-Activity %, single experiments” value ([1]; 25 µM compound, 25 µM) was 99.4% and 100.5% and the activity at 25 µM ([1]; 25 µM compound, read-out: PRDM7-Activity %, Average (n=3)) was 101%. The activity at 25 µM ([1]; 25 µM compound, read-out: PRDM7-Activity %, single experiments) was 105%, the “PRDM7-Activity %, single experiments” value ([1]; 50 µM compound, 50 µM) was 93.21% and 92.53% and the activity at 50 µM ([1]; 50 µM compound, read-out: PRDM7-Activity %, Average (n=3)) was 93%. The activity at 50 µM ([1]; 50 µM compound, read-out: PRDM7-Activity %, single experiments) was 93.3%, the “PRDM7-Activity %, single experiments” value ([1]; 100 µM compound, 100 µM) was 98.05% and 87.79% and the activity at 100 µM ([1]; 100 µM compound, read-out: PRDM7-Activity %, Average (n=3)) was 89.8%. The activity at 100 µM ([1]; 100 µM compound, read-out: PRDM7-Activity %, single experiments) was 83.5%, the “PRDM7-Activity %, single experiments” value ([1]; 200 µM compound, 200 µM) was 98.85% and 73.14% and 89.14% and the activity at 200 µM ([1]; 200 µM compound, read-out: PRDM7-Activity %, Average (n=3)) was 87%. For the same molecule, the “Tm of PRDM9 in cells (NALTSA)” value ([2]; 10 µM compound, 0.1% DMSO, 1 h, DMSO control Tm 52 ± 0.3 °C) was 51.6 ± 0.3 °C, the “∆Tm (°C)” value ([2]; Fig. 5b, replicates) was 0.2175 °C and -0.9409 °C and -0.4232 °C and the Normalized_Signal ([2]; Temperature 41.9 °C) was 1. The Normalized_Signal ([2]; Temperature 42.4 °C) was 0.9008 and 0.9609 and 1.092, the Normalized_Signal ([2]; Temperature 43.6 °C) was 0.8855 and 0.9556 and 0.9997 and the Normalized_Signal ([2]; Temperature 45.5 °C) was 0.873 and 0.8101 and 0.9461. The Normalized_Signal ([2]; Temperature 47.8 °C) was 0.7977 and 0.6572 and 0.8375, the Normalized_Signal ([2]; Temperature 50.4 °C) was 0.6003 and 0.5454 and 0.5984 and the Normalized_Signal ([2]; Temperature 53.1 °C) was 0.5018 and 0.4469 and 0.4089. The Normalized_Signal ([2]; Temperature 55.8 °C) was 0.3624 and 0.3667 and 0.3326, the Normalized_Signal ([2]; Temperature 58.1 °C) was 0.3387 and 0.2885 and 0.2383 and the Normalized_Signal ([2]; Temperature 60.1 °C) was 0.2284 and 0.1546 and 0.1556. For the same molecule, the Normalized_Signal ([2]; Temperature 61.5 °C) was 0.2018 and 0.1276 and 0.1034 and the Normalized_Signal ([2]; Temperature 62.1 °C) was 0.1991 and 0.1124 and 0.111.
